Measurements from ChEMBL document CHEMBL1201862, “PubChem BioAssay data set” (2004).
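1) Cells in 96-well plates. 2) Compound, 48 h, 5 concentrations. 3) Linear interpolation between surrounding doses. 4) Unreached endpoint = highest concentration. GI50: concentration for 50% inhibition of growth.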 Calls of active or inactive are those of the source. No stated cut-off is given here; in the data, active = GI50 up to about 1.1 µM and inactive = higher.

How the values were obtained:
Assay in all cases: NCI-60 cell line screen, 48 h
786-0 = test system: 786-0
COLO 205 = test system: COLO 205
HOP-62 = test system: HOP-62
KM12 = test system: KM12
Malme-3M = test system: Malme-3M
OVCAR-4 = test system: OVCAR-4
SNB-19 = test system: SNB-19
SNB-75 = test system: SNB-75
SW-620 = test system: SW-620
U-251 = test system: U-251
UACC-257 = test system: UACC-257
HOP-92 = test system: HOP-92
LOX IMVI = test system: LOX IMVI
RXF 393 = test system: RXF 393
SK-OV-3 = test system: SK-OV-3

Measured: GI50

C/C(CN1C(=O)c2ccccc2C1=O)=N\NS(=O)(=O)c1ccc(Cl)cc1
inactive: 786-0 > 100 µM | COLO 205 > 100 µM | HOP-62 > 100 µM | KM12 > 100 µM | Malme-3M > 100 µM | OVCAR-4 > 100 µM | SNB-19 > 100 µM | SNB-75 > 100 µM | SW-620 > 100 µM | U-251 > 100 µM | UACC-257 > 100 µM

CC(=O)C1C(=O)C(=O)N(CCN2C(=O)C(=O)C(C(C)=O)C2=O)C1=O (configuration not stated)
inactive: 786-0 > 100 µM | COLO 205 > 100 µM | HOP-62 > 100 µM | HOP-92 > 100 µM | KM12 > 100 µM | LOX IMVI > 100 µM | Malme-3M > 100 µM | OVCAR-4 > 100 µM | RXF 393 > 100 µM | SK-OV-3 > 100 µM | SNB-19 > 100 µM | SNB-75 > 100 µM | SW-620 > 100 µM | U-251 > 100 µM | UACC-257 > 100 µM

O=C1[C@H]2ON(c3ccccc3)C(c3ccccc3)[C@H]2C(=O)N1c1ccc(Cc2ccc(N3C(=O)[C@@H]4ON(c5ccccc5)C(c5ccccc5)[C@@H]4C3=O)cc2)cc1 (some centres not stated)
inactive: 786-0 > 100 µM | COLO 205 > 100 µM | HOP-62 > 100 µM | HOP-92 > 100 µM | KM12 > 100 µM | LOX IMVI > 100 µM | Malme-3M > 100 µM | OVCAR-4 > 100 µM | RXF 393 88.1 µM | SK-OV-3 > 100 µM | SNB-75 > 100 µM | SW-620 > 100 µM | U-251 > 100 µM | UACC-257 > 100 µM

COc1c(C2=NC(C(C)C)CO2)ccc2ccccc12 (configuration not stated)
inactive: 786-0 45.9 µM | COLO 205 41.2 µM | HOP-62 47.8 µM | HOP-92 30.1 µM | KM12 28.1 µM | LOX IMVI 21.5 µM | Malme-3M 35.8 µM | OVCAR-4 31.7 µM | RXF 393 16.4 µM | SK-OV-3 > 100 µM | SNB-19 50.5 µM | SNB-75 27.6 µM | SW-620 45 µM | UACC-257 34.2 µM

NS(=O)(=O)c1ccc(NC(=O)c2cccc3c(=O)c4ccccc4[nH]c23)cc1
inactive: 786-0 > 100 µM | COLO 205 37.2 µM | HOP-62 39.8 µM | HOP-92 > 100 µM | KM12 22.2 µM | LOX IMVI 20.7 µM | Malme-3M 24.7 µM | OVCAR-4 29.6 µM | SK-OV-3 19.9 µM | SNB-19 76.4 µM | SNB-75 15.3 µM | SW-620 78.9 µM | U-251 48.4 µM | UACC-257 > 100 µM

COc1cccc(N2C(=O)[C@H]3[C@H]4CC(C(C)(C)C)CC[C@H]4c4c([nH]c5ccccc45)[C@H]3C2=O)c1 (some centres not stated)
inactive: 786-0 16.6 µM | COLO 205 15.5 µM | HOP-62 17.7 µM | KM12 39 µM | LOX IMVI 16.5 µM | Malme-3M 20.6 µM | RXF 393 21.1 µM | SK-OV-3 20.8 µM | SNB-19 18.9 µM | SNB-75 15.3 µM | SW-620 17.4 µM | UACC-257 20.6 µM

FC(F)(F)c1nc2ccc3[nH]c4c(-c5ccccc5)nccc4c3c2[nH]1
inactive: 786-0 > 100 µM | COLO 205 > 100 µM | HOP-62 > 100 µM | HOP-92 > 100 µM | KM12 > 100 µM | LOX IMVI > 46.8 µM | Malme-3M > 100 µM | OVCAR-4 > 100 µM | RXF 393 > 100 µM | SK-OV-3 > 100 µM | SNB-19 > 100 µM | SNB-75 > 100 µM | SW-620 > 100 µM | U-251 > 100 µM | UACC-257 > 100 µM

Cc1ccc(Nc2nc3c(s2)C(=O)c2ccccc2C3=O)cc1
inactive: 786-0 1.88 µM | COLO 205 12.3 µM | HOP-62 7.16 µM | HOP-92 2.86 µM | KM12 1.55 µM | LOX IMVI 1.58 µM | Malme-3M 1.92 µM | OVCAR-4 1.55 µM | SK-OV-3 24.9 µM | SNB-19 1.79 µM | SNB-75 2.14 µM | SW-620 1.69 µM | U-251 1.89 µM | UACC-257 1.75 µM

CC(=O)OC12CCCCC1C1(CCCC1)NC2=O (configuration not stated)
inactive: 786-0 > 100 µM | HOP-62 > 100 µM | KM12 > 100 µM | LOX IMVI > 100 µM | Malme-3M > 100 µM | OVCAR-4 > 100 µM | RXF 393 > 100 µM | SK-OV-3 > 100 µM | SNB-19 > 100 µM | SNB-75 > 100 µM | SW-620 > 100 µM | U-251 > 100 µM | UACC-257 > 100 µM

Cc1nc2ccccc2c(=O)n1/N=C(\N=N\c1cc(Cl)ccc1Cl)c1cccc(-c2ccco2)c1
inactive: 786-0 > 100 µM | COLO 205 > 100 µM | HOP-62 > 100 µM | HOP-92 27.6 µM | KM12 82.6 µM | LOX IMVI > 100 µM | Malme-3M > 100 µM | OVCAR-4 > 100 µM | RXF 393 67.8 µM | SK-OV-3 > 100 µM | SNB-19 > 100 µM | SNB-75 > 100 µM | SW-620 > 100 µM | U-251 > 100 µM | UACC-257 > 100 µM

O=S(=O)(N/N=C/c1ccc(Cl)c(Cl)c1)c1ccccc1
inactive: 786-0 31.8 µM | COLO 205 21.6 µM | HOP-62 35.7 µM | HOP-92 9.82 µM | KM12 29 µM | LOX IMVI 43.9 µM | Malme-3M > 100 µM | OVCAR-4 55 µM | RXF 393 18.5 µM | SK-OV-3 39.7 µM | SNB-75 52 µM | SW-620 53 µM | U-251 33.7 µM | UACC-257 38.8 µM

CCc1c(OC(C)=O)c2c(NC3OC(COC(C)=O)C(OC(C)=O)C(OC(C)=O)C3OC(C)=O)nc(OC)nc2oc1=O (configuration not stated)
inactive: 786-0 > 100 µM | COLO 205 > 100 µM | HOP-62 > 100 µM | KM12 > 100 µM | LOX IMVI > 100 µM | Malme-3M > 100 µM | OVCAR-4 > 100 µM | RXF 393 > 100 µM | SK-OV-3 > 100 µM | SNB-19 > 100 µM | SNB-75 > 100 µM | SW-620 > 100 µM | U-251 > 100 µM | UACC-257 > 100 µM

Cc1ccc(S(=O)(=O)N/N=C\c2c3ccccc3[n+](C)c3ccccc23)cc1
inactive: 786-0 28.1 µM | HOP-62 34.1 µM | HOP-92 17.1 µM | KM12 34.6 µM | LOX IMVI 11.2 µM | Malme-3M 32.4 µM | OVCAR-4 27.6 µM | RXF 393 15.9 µM | SK-OV-3 > 100 µM | SNB-19 24.9 µM | SNB-75 20 µM | SW-620 33.8 µM | U-251 24 µM | UACC-257 30.8 µM

O=C(O/N=C1/CCCC/C1=C\c1ccccc1)c1ccc(Cl)cc1
inactive: 786-0 > 100 µM | COLO 205 > 100 µM | HOP-62 > 100 µM | HOP-92 40.9 µM | KM12 > 100 µM | LOX IMVI 57.8 µM | Malme-3M > 100 µM | OVCAR-4 53 µM | RXF 393 > 100 µM | SK-OV-3 > 100 µM | SNB-19 > 100 µM | SNB-75 88.7 µM | SW-620 > 100 µM | U-251 89.3 µM | UACC-257 > 100 µM

CCN(CC)CCC(=O)Nc1ccc2c(c1)C(=O)c1ccc(NC(=O)CCN(CC)CC)cc1C2=O
inactive: 786-0 2.15 µM | COLO 205 3.28 µM | HOP-62 5.37 µM | HOP-92 12.8 µM | KM12 1.81 µM | LOX IMVI 2.19 µM | OVCAR-4 4.63 µM | RXF 393 2.11 µM | SK-OV-3 9.73 µM | SNB-19 5.48 µM | SNB-75 14.2 µM | SW-620 2.24 µM | U-251 9.18 µM | UACC-257 14.8 µM

c1cnc2nc3n(c2c1)CSC3
inactive: 786-0 > 100 µM | COLO 205 > 100 µM | HOP-62 > 100 µM | HOP-92 > 100 µM | KM12 > 100 µM | LOX IMVI > 100 µM | Malme-3M > 100 µM | OVCAR-4 > 100 µM | RXF 393 > 100 µM | SK-OV-3 > 100 µM | SNB-75 > 100 µM | SW-620 > 100 µM | U-251 > 100 µM | UACC-257 > 100 µM

O=[N+]([O-])c1nccn1COCCI
inactive: 786-0 > 100 µM | COLO 205 > 100 µM | HOP-62 > 100 µM | HOP-92 > 100 µM | KM12 > 100 µM | LOX IMVI > 100 µM | Malme-3M > 100 µM | OVCAR-4 > 100 µM | SK-OV-3 > 100 µM | SNB-19 > 100 µM | SNB-75 > 100 µM | SW-620 > 100 µM | U-251 > 100 µM | UACC-257 > 100 µM

CCOC(=O)Nc1ccc(S(=O)(=O)I)cc1.CCOC(=O)Nc1ccc(S(=O)(=O)I)cc1.CN(C=O)C1=C(N(C)C=O)C(N(C)C=O)=C(N(C)C=O)C(=O)C1=O
inactive: 786-0 > 100 µM | COLO 205 > 100 µM | HOP-62 > 100 µM | HOP-92 > 100 µM | KM12 > 100 µM | LOX IMVI > 100 µM | Malme-3M > 100 µM | SK-OV-3 > 100 µM | SNB-19 > 100 µM | SW-620 > 100 µM | U-251 > 100 µM | UACC-257 > 100 µM

Cc1ccccc1-n1c2nc(=O)n(C)c(=O)c-2nc2ccccc21
inactive: 786-0 15.8 µM | COLO 205 3.56 µM | HOP-62 38.5 µM | KM12 12.2 µM | LOX IMVI 15.7 µM | Malme-3M 5.58 µM | OVCAR-4 13.6 µM | RXF 393 17.2 µM | SK-OV-3 36.9 µM | SNB-19 14.6 µM | SNB-75 20.1 µM | SW-620 13.4 µM | U-251 17.3 µM | UACC-257 8.73 µM
